Assay results reported in patent publication US20240165042A1, “COMPOSITION FOR CONTROLLED RELEASE OF PHYSIOLOGICALLY ACTIVE SUBSTANCES AND PROCESS FOR ITS PREPARATION” (BALCHEM ITALIA S.R.L., priority 2017, published 2024).

Assays:
Format in all cases: in vitro ADME
[1] = Post-ruminal digestibility in vitro (pharmaceutical dissolver, Boisen Test: gastric pH 2.0 + pepsin, intestinal pH 6.8 + pancreatine, then lipase and bile extract)
Experimental: (§1) The experimental conditions of use were 39° C., 15 rpm, 8 hours presence in the solution with “ruminal” pH of about 6.8. • Daisy^II ANKOM: commercially available laboratory artificial rumen, for determining the degree of ruminal bypass. The experimental conditions of use were 39° C., 8 hours presence in ruminal conditions, buffer solution at “ruminal” pH with insertion of “ruminal inoculum” and re-creation of ruminal anaerobiosis according to a university procedure known to those skilled in the art. The pH normally tested in the quality control phase is 6.8. Pharmaceutical dissolver for determining the degree of post-ruminal digestibility. The experimental conditions of use followed the procedure known to experts in the field as “Boisen Test” and, in particular, they were: • 39° C., 30 rpm, 2 h, buffer solution with “gastric” pH (2.0)+pepsin inoculum. • 39 °C, 30 rpm, 4 h, buffer solution with “intestinal” pH (6.8)+pancreatine inoculum. • 39° C., 30 rpm, 18 h, buffer solution with “intestinal” pH (6.8)+lipase and bile extract inoculum.
(§2) Then the microgranules were subjected to an evaluation of the degree of ruminal by-pass, post-ruminal digestibility and total bioavailability using the Boisen method.

[2] = Degree of ruminal by-pass in vitro (pharmaceutical dissolver / Daisy II ANKOM artificial rumen, 39° C., 8 hours, ruminal pH about 6.8)
Experimental: In the context of the present invention, the term “ruminal by-pass” indicates the percentage amount by weight of substance reaching the animal post-ruminal area, namely the stomach and the intestine, with respect to the total amount by weight of the orally administered substance.
The experimental conditions of use were 39° C., 15 rpm, 8 hours presence in the solution with “ruminal” pH of about 6.8. • Daisy^II ANKOM: commercially available laboratory artificial rumen, for determining the degree of ruminal bypass. The experimental conditions of use were 39° C., 8 hours presence in ruminal conditions, buffer solution at “ruminal” pH with insertion of “ruminal inoculum” and re-creation of ruminal anaerobiosis according to a university procedure known to those skilled in the art. […] Pharmaceutical dissolver for determining the degree of post-ruminal digestibility. The experimental conditions of use followed the procedure known to experts in the field as “Boisen Test” and, in particular, they were: • 39° C., 30 rpm, 2 h, buffer solution with “gastric” pH (2.0)+pepsin inoculum. • 39 °C, 30 rpm, 4 h, buffer solution with “intestinal” pH (6.8)+pancreatine inoculum. • 39° C., 30 rpm, 18 h, buffer solution with “intestinal” pH (6.8)+lipase and bile extract inoculum.
as §2

[3] = Total bioavailability in vitro (combination of ruminal by-pass and post-ruminal digestibility)
Experimental: as §1, §2

[4] = theoretical administration of 100 g of choline chloride
[5] = theoretical administration of 200 g of product

For `C[N+](C)(C)CCO.[Cl-]` [Product A, choline chloride], the “Choline Chloride in faeces” value [1, 4] was 0 g, the “Choline Chloride in faeces” value [1, 5] was 0 g and the “Bypassed Choline Chloride” value [2, 4] was 0 g. The “Choline Chloride lost in the rumen in 8 h” value [2, 4] was 101 g, the “Bypassed Choline Chloride” value [2, 5] was 0 g and the “Choline Chloride lost in the rumen in 8 h” value [2, 5] was 198 g. The “Bioavailable Choline Chloride” value [3, 4] was 0 g and the “Bioavailable Choline Chloride” value [3, 5] was 0 g.
